Data on 26 compounds can be found in patent US11780826B2 (Amgen Inc., priority 2017, dated 2023).

The test deals with Bovine cardiac myofibrils. In words: In vitro model of dose-dependent myofibril ATPase modulation (AC1.4, pyruvate kinase/lactate dehydrogenase-coupled ATPase assay at pCa25). Type of test: biochemical. The conditions noted are these: concentration at which ATPase activity was 1.4-fold higher than the bottom of the dose curve, mean of a minimum of two independent tests. In short, it runs like this: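 We measure calcium-buffered ATPase activity of detergent-skinned bovine cardiac myofibrils at pH 6.80 and 22° C with 1 mM ATP, using a PK/LDH-coupled NADH readout at 340 nm. Values come from four-parameter dose-response fits, averaged over at least two independent runs.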
Turning to `C[C@@H](NC(=O)[C@H]1CCCN1C(=O)[C@H]1CCCN(S(=O)(=O)N2CC(S(C)(=O)=O)C2)C1)c1ccc(F)cc1F` [Example 321, N-((1R)-1-(2,4-difluorophenyl)ethyl)-1-(((3S)-1-((3-(methylsulfonyl)-1-azetidinyl)sulfonyl)-3-piperidinyl)carbonyl)-D-prolinamide], the AC1.4 came out at 0.8725 µM.
The same measure for `COc1ccc(F)cc1C(C)NC(=O)[C@H]1CCCN1C(=O)[C@H]1CCCN(S(=O)(=O)N2CC(C#N)C2)C1` (stereo partly drawn) [Example 633, (2R)-1-((S)-1-((3-cyanoazetidin-1-yl)sulfonyl)piperidine-3-carbonyl)-N-(1-(5-fluoro-2-methoxyphenyl)ethyl)pyrrolidine-2-carboxamide]: 4.0935 µM.
Then `N#CC1CN(S(=O)(=O)N2CCN[C@H](C(=O)N3CCC[C@@H]3C(=O)NCc3ccc(C(F)(F)F)cc3)C2)C1` [Example 239, 1-(((2S)-4-((3-cyano-1-azetidinyl)sulfonyl)-2-piperazinyl)carbonyl)-N-(4-(trifluoromethyl)benzyl)-D-prolinamide], with 0.5676 µM.
Turning to `N#CC1CN(S(=O)(=O)N2CCC[C@H](C(=O)N3CCC[C@@H]3C(=O)N[C@H](CO)c3ccc(Cl)c(F)c3)C2)C1` [Example 78, N-((1S)-1-(4-chloro-3-fluorophenyl)-2-hydroxyethyl)-1-(((3S)-1-((3-cyano-1-azetidinyl)sulfonyl)-3-piperidinyl)carbonyl)-D-prolinamide], the AC1.4 was 0.1023 µM.
The same measure for `O=C(N[C@@H](c1ccc(C(F)(F)F)cc1F)C1COC1)[C@H]1C[C@H]2C[C@H]2N1C(=O)c1cncc(C(F)(F)F)c1` [Example 527, (1R,3R,5R)-N-((R)-(2-fluoro-4-(trifluoromethyl)phenyl)(3-oxetanyl)methyl)-2-((5-(trifluoromethyl)-3-pyridinyl)carbonyl)-2-azabicyclo[3.1.0]hexane-3-carboxamide]: 2.5985 µM; for `O=C(NCc1ccc(C(F)(F)F)cc1)[C@H]1CCCN1C(=O)[C@H]1CCCN(S(=O)(=O)N2CC(n3cccc3)C2)C1` [Example 367, 1-(((3S)-1-((3-(1H-pyrrol-1-yl)-1-azetidinyl)sulfonyl)-3-piperidinyl)carbonyl)-N-(4-(trifluoromethyl)benzyl)-D-prolinamide]: 1.1962 µM.
Then `CCNc1ccc(C)cc1C(=O)N1C[C@@H](O)C[C@@H]1C(=O)N[C@@H](c1cc(F)c(Cl)cc1F)C1COC1` [Example 110, (4S)-N-((R)-(4-chloro-2,5-difluorophenyl)(3-oxetanyl)methyl)-1-(2-(ethylamino)-5-methylbenzoyl)-4-hydroxy-D-prolinamide], with 0.1732 µM; and `NC(=O)[C@H]1C[C@H](S(=O)(=O)N2CCC[C@H](C(=O)N3CCC[C@@H]3C(=O)NCc3ccc(C(F)(F)F)cc3)C2)C1` [Example 626, 1-(((3S)-1-((trans-3-carbamoylcyclobutyl)sulfonyl)-3-piperidinyl)carbonyl)-N-(4-(trifluoromethyl)benzyl)-D-prolinamide], with 4.031 µM; and `CS(=O)(=O)c1cccc(C(=O)N2[C@@H](C(=O)N[C@@H](c3ccc(C(F)(F)F)cc3F)C3(O)CC3)C[C@H]3C[C@H]32)c1` [Example 559, (1R,3R,5R)-N-((S)-(2-fluoro-4-(trifluoromethyl)phenyl)(1-hydroxycyclopropyl)methyl)-2-(3-(methylsulfonyl)benzoyl)-2-azabicyclo[3.1.0]hexane-3-carboxamrde], with 2.7115 µM.
`Cc1ccc(CNC(=O)[C@H]2CCCN2C(=O)c2cccc(S(=O)(=O)N3CC(C#N)C3)c2)c(F)c1` [Example 76, 1-((3-((3-cyano-1-azetidinyl)sulfonyl)phenyl)carbonyl)-N-(2-fluoro-4-methylbenzyl)-D-prolinamide] displayed an AC1.4 of 0.1008 µM.
Regarding `N#CC1CN(S(=O)(=O)c2cccc(C(=O)N3CCC[C@@H]3C(=O)NCc3ccc(C(F)(F)F)cn3)c2)C1` [Example 644, 1-((3-((3-cyano-1-azetidinyl)sulfonyl)phenyl)carbonyl)-N-((5-(trifluoromethyl)-2-pyridinyl)methyl)-D-prolinamide], the AC1.4 came to 4.3367 µM.
The same measure for `CCNc1ccc(S(C)(=O)=O)cc1C(=O)N1[C@@H](C(=O)N[C@@H](c2ccc(C(F)(F)F)cc2F)C2CC2)C[C@H]2C[C@H]21` [Example 50, (1R,3R,5R)-N-((R)-cyclopropyl(2-fluoro-4-(trifluoromethyl)phenyl)methyl)-2-(2-(ethylamino)-5-(methylsulfonyl)benzoyl)-2-azabicyclo[3.1.0]hexane-3-carboxamide]: 0.0546 µM.
The compound `CCNc1ccccc1C(=O)N1CCC[C@@H]1C(=O)N[C@@H](c1ccc(C(F)(F)F)cc1F)C1CC1` [Example 521, N-((R)-cyclopropyl(2-fluoro-4-(trifluoromethyl)phenyl)methyl)-1-(2-(ethylamino)benzoyl)-D-prolinamide] yielded an AC1.4 of 2.551 µM.
For the compound `N#CC1CN(S(=O)(=O)N2CCC[C@H](C(=O)N3CCC[C@@H]3C(=O)NCc3cccc(F)c3F)C2)C1` [Example 516, 1-(((3S)-1-((3-cyano-1-azetidinyl)sulfonyl)-3-piperidinyl)carbonyl)-N-(2,3-difluorobenzyl)-D-prolinamide], the AC1.4 is 2.446 µM.
`CS(=O)(=O)c1cccc(C(=O)N2[C@@H](C(=O)N[C@@H](c3ccc(Cl)c(F)c3)C3CC3)C[C@H]3C[C@H]32)c1` [Example 485, (1R,3R,5R)-N-((R)-(4-chloro-3-fluorophenyl)(cyclopropyl)methyl)-2-(3-(methylsulfonyl)benzoyl)-2-azabicyclo[3.1.0]hexane-3-carboxamide] displayed an AC1.4 of 2.0445 µM.
The compound `Cc1c(F)cccc1CNC(=O)[C@H]1CCCN1C(=O)[C@H]1CCCN(S(=O)(=O)N2CC(C#N)C2)C1` [Example 288] registered an AC1.4 of 0.7452 µM.
Then `Cc1cc(C(=O)N2[C@@H](C(=O)N[C@@H](c3cc(F)c(C(F)(F)F)cc3F)C3COC3)C[C@H]3C[C@H]32)c2[nH]ncc2c1` [Example 820, (1R,3R,5R)-N-((R)-(2,5-difluoro-4-(trifluoromethyl)phenyl)(oxetan-3-yl)methyl)-2-(5-methyl-1H-indazole-7-carbonyl)-2-azabicyclo[3.1.0]hexane-3-carboxamide], with 0.9916 µM.
Turning to `Cc1nnc(CNS(=O)(=O)N2CCC[C@H](C(=O)N3CCC[C@@H]3C(=O)NCc3ccc(C(F)(F)F)cc3)C2)o1` [Example 774, 1-(((3S)-1-(((5-methyl-1,3,4-oxadiazol-2-yl)methyl)sulfamoyl)-3-piperidinyl)carbonyl)-N-(4-(trifluoromethyl)benzyl)-D-prolinamide], the AC1.4 is 8.3045 µM.
For the compound `N#CC1CN(S(=O)(=O)N2CCC[C@H](C(=O)N3CCC[C@@H]3C(=O)NCc3cc(Cl)ccc3F)C2)C1` [Example 549, N-(5-chloro-2-fluorobenzyl)-1-(((3S)-1-((3-cyano-1-azetidinyl)sulfonyl)-3-piperidinyl)carbonyl)-D-prolinamide], the AC1.4 is 2.8405 µM.
The same measure for `N#C[C@H]1C[C@H](S(=O)(=O)c2cccc(C(=O)N3CCCC[C@@H]3C(=O)NCc3ccc(C(F)(F)F)nc3)c2)C1` [Example 355, (2R)-1-((3-((trans-3-cyanocyclobutyl)sulfonyl)phenyl)carbonyl)-N-((6-(trifluoromethyl)-3-pyridinyl)methyl)-2-piperidinecarboxamide]: 1.0472 µM; for `N#CC1CN(S(=O)(=O)N2CCC[C@H](C(=O)N3CCC[C@@H]3C(=O)NCc3ccc(C(F)(F)F)nc3)C2)C1` [Example 410, 1-(((3S)-1-((3-cyano-1-azetidinyl)sulfonyl)-3-piperidinyl)carbonyl)-N-((6-(trifluoromethyl)-3-pyridinyl)methyl)-D-prolinamide]: 1.4853 µM.
Then `CS(=O)(=O)c1cccc(C(=O)N2[C@@H](C(=O)N[C@@H](c3ccc(C(F)(F)F)cc3)C3CC3)C[C@H]3C[C@H]32)c1` [Example 596, (1R,3R,5R)-N-((R)-cyclopropyl(4-(trifluoromethyl)phenyl)methyl)-2-(3-(methylsulfonyl)benzoyl)-2-azabicyclo[3.1.0]hexane-3-carboxamide], with 2.9335 µM.
Compound `N#CC1CN(S(=O)(=O)N2CCC[C@H](C(=O)N3CCC[C@@H]3C(=O)NC3Cc4ccccc43)C2)C1` (stereo partly drawn) [Example 705, (2R)-N-(bicyclo[4.2.0]octa-1 (6),2,4-trien-7-yl)-1-((S)-1-((3-cyanoazetidin-1-yl)sulfonyl)piperidine-3-carbonyl)pyrrolidine-2-carboxamide] had an AC1.4 of 5.7373 µM.
The compound `COC(=O)[C@H]1C[C@H](S(=O)(=O)N2CCC[C@H](C(=O)N3CCC[C@@H]3C(=O)NCc3ccc(C(F)(F)F)cc3)C2)C1` [Example 775, methyltrans-3-(((3S)-3-(((2R)-2-((4-(trifluoromethyl)benzyl)carbamoyl)-1-pyrrolidinyl)carbonyl)-1-piperidinyl)sulfonyl)cyclobutanecarboxylate] gave an AC1.4 of 8.31 µM.
Then `CS(=O)(=O)c1cc(C(=O)N2CCC[C@@H]2C(=O)N[C@@H](c2ccc(C(F)(F)F)cc2F)C2CC2)ccn1` [Example 675, N-((R)-cyclopropyl(2-fluoro-4-(trifluoromethyl)phenyl)methyl)-1-((2-(methylsulfonyl)-4-pyridinyl)carbonyl)-D-prolinamide], with 4.9395 µM.
Then `COc1cccc(CNC(=O)[C@H]2CCCN2C(=O)[C@H]2CCCN(S(=O)(=O)N3CC(C#N)C3)C2)c1Cl` [Example 583, N-(2-chloro-3-methoxybenzyl)-1-(((3S)-1-((3-cyano-1-azetidinyl)sulfonyl)-3-piperidinyl)carbonyl)-D-prolinamide], with 3.3715 µM.
